{"source": "patent US20250171516A1", "about": "“PEPTIDE ACIDS AS A GLP1R AGONIST AND ANTIBODY-DRUG CONJUGATES THEREOF” (Regeneron Pharmaceuticals, Inc., priority 2023, published 2025)", "key": {"GLP-1R [1]": {"biological_target": "T1, GLP-1R (Homo sapiens, UniProt P43220)", "T1 sequence (P43220 24-463)": "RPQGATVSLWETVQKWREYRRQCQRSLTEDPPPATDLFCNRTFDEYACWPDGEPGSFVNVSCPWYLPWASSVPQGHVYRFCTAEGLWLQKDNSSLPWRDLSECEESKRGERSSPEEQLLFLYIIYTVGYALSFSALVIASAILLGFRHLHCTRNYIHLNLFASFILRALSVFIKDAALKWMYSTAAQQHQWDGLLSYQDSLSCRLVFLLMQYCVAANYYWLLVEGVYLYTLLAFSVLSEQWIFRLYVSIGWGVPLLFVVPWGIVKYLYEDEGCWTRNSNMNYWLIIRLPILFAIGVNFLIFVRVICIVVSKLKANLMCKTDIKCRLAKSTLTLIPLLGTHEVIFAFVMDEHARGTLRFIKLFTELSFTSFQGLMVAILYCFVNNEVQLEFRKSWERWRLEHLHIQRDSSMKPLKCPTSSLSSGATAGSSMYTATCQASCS", "assay": "GLP-1R cAMP assay of peptides (Tables 10, 14, 15)", "assay_type": "cell-based"}, "GLP-1R [2]": {"biological_target": "T1, GLP-1R", "assay": "CRE-Luc cAMP responsive luciferase reporter assay in HEK293/CRE-Luc/hGLP1R cells", "assay_type": "cell-based", "parameters": "engineered to express full-length human GLP1R (GenBank: AAI12127.1) (HEK293/CRE-Luc/hGLP1R); expressed in transfected cells; host or cells: HEK293/CRE-Luc (HEK293/FSC11/pCDNA3.1 + GLP1R, ACL6822)", "conditions": "for Emax: HEK293, read-out: Emax (% GLP-1), CRE-dependent reporter activity, HEK293/CRE-Luc/hGLP1R", "source_text": "To test the activity of GLP1R agonist linker-payloads (LPs) and anti-GLP1R antibody-tethered ligands (ATLs) of the invention, a cell-based cAMP responsive luciferase reporter assay was developed. To generate the assay cell line, the firefly luciferase gene was placed under the control of four copies of a cAMP response element (4×CRE) located upstream of a minimal promoter and transfected into HEK293 cells and referred to herein as HEK293/CRE-Luc cells. HEK293/CRE-Luc cells were then engineered to express full-length human GLP1R (GenBank: AAI12127.1) (HEK293/CRE-Luc/hGLP1R).\n(§1) For all assays, cells were seeded into 384-well plates (Falcon #353988) at 6,000 cells/well in assay media (Opti-MEM, 1% FBS, 1×Penicillin-Streptomycin) and incubated overnight at 37° C. Serial dilutions of the anti-GLP1R ATLs and non-binding control ATLs were performed in assay media. Serial dilutions of linker-payloads (LPs) were performed in 100% DMSO (ATCC, #4-X-5), followed by 1:100 dilution in assay media. Test articles were added to cells (1:5 dilution) using VIAFLO 384 (Integra) with the last well in each serial dilution series serving as a blank control containing only assay media for ATLs or assay media with 0.2% DMSO for LPs. The blank was plotted as a continuation of the serial dilution.\nFor the CRE-Luc assay, after a 5-hours incubation at 37° C., luciferase activity was determined by addition of ONE-Glo reagent (Promega, #E6130) followed by measurement of relative light units (RLUs) on EnVision Plate Reader (Perkin Elmer).\n(§2) EC50 values for luminescence assays were determined using a four-parameter logistic equation over a 12-point dose response curve (GraphPad Prism)."}, "GLP-1R [3]": {"biological_target": "T1, GLP-1R", "assay": "b-arrestin 2 recruitment enzyme fragment complementation assay in HEK293/b-arrestin2/hGLP1R cells", "assay_type": "cell-based", "parameters": "The full-length human GLP1R (NP_002053.3) with a C-terminus fusion to a small b-gal fragment called enzyme donor or ProLink (PK); host or cells: HEK293/b-arrestin2-EA (HEK293/Barrestin clone 2C6/hGLP1R-Prolink1 high sorted, ACL21687)", "source_text": "To test the recruitment of b-arrestin 1 and b-arrestin 2 to GLP1R upon receptor activation, two enzyme fragment complementation assays were developed. To generate the assay cell lines, b-arrestin 1 fused to the b-galactosidase (b-gal) reporter fragment called enzyme acceptor (EA) (i.e., b-arrestin1-EA) or b-arrestin 2 fused to the b-gal reporter fragment EA (i.e., b-arrestin2-EA) were transduced into HEK293 cells using PathHunter b-Arrestinl Retroparticles (DiscoverX, #83-OT-TB-N-01) or PathHunter b-Arrestin2 Retroparticles (DiscoverX, #93-1087), respectively. The full-length human GLP1R (NP_002053.3) with a C-terminus fusion to a small b-gal fragment called enzyme donor or ProLink (PK) (i.e., hGLP1R-PK) was then engineered into HEK293/b-arrestinl-EA cells and HEK293/b-arrestin2-EA cells to generate the cell lines referred herein as HEK293/b-arrestin1/hGLP1R and HEK293/b-arrestin2/hGLP1R. Recruitment of b-arrestin 1 or b-arrestin 2 to GLP1R in these reporter cell lines brings both b-gal fragments (EA and PK) into close proximity, leading to reconstitution of a fully functional enzyme capable of hydrolyzing a substrate and generating a chemiluminescent signal.\nas §1\nFor b-arrestin 1 and b-arrestin 2 recruitment assays, after a 1-hour incubation at 37° C., PathHunter Detection Reagent (Eurofins DiscoverX, #93-0001) was added to the wells followed by a 1-hour incubation at room temperature. RLUs were measured on EnVision Plate Reader (Perkin Elmer).\nas §2"}, "[4]": {"assay": "Metabolite study in human liver S9 (high resolution LC-MS)", "assay_type": "in vitro ADME", "procedure": "Metabolite studies were conducted using Q-M3190 and Q-6009 (Q is Glutamine).\nLiver S9 is the supernatant obtained by grinding and centrifuging the liver cells. The enzymes content is lower compared to Hepatocytes. It mainly contains CYP enzymes and some biphasic enzymes (but no biphasic coenzyme), so additional coenzyme (NADPH and UDPGA, etc.) is needed to mediate the biphasic reaction."}, "[5]": {"assay": "pH stability (special liability)", "assay_type": "physicochemical"}}, "note": "“And” between values parts separate entries of the source, which are not always exact repeats. Identical values can stand only once."}
{"smiles": "CCc1cc(OCCCCn2cc(COCCOCCOCCOCCOCCOCCOCCOCCN)nn2)ccc1-c1ccc(C[C@H](NC(=O)[C@H](CC(=O)O)NC(=O)[C@H](CO)NC(=O)[C@@H](NC(=O)C(C)(Cc2ccccc2F)NC(=O)[C@@H](NC(=O)CNC(=O)[C@H](Cc2nnn[nH]2)NC(=O)C(C)(C)C(=O)NCCc2cnc[nH]2)[C@@H](C)O)[C@@H](C)O)C(=O)O)cc1", "note": "(some centres unmarked) [M6324]", "values": [{"measurement": "EC50", "setting": "GLP-1R [1]", "value": 882, "unit": "nM"}, {"measurement": "GLP-1R CAMP Max", "setting": "GLP-1R [1]; Table 10", "value": 53.33, "unit": "%"}, {"measurement": "solubility", "setting": "Solubility in water", "value": "> 70000 µg/mL and > 30000 µM"}, {"measurement": "Emax", "setting": "GLP-1R [2]", "value": 91.6, "unit": "%"}, {"measurement": "EC50", "setting": "GLP-1R [3]", "value": "> 1000", "unit": "nM"}, {"measurement": "Emax", "setting": "GLP-1R [3]; HEK293, read-out: Emax (% GLP-1), b-Arrestin2 recruitment, HEK293/b-arrestin2/hGLP1R", "value": 0.7, "unit": "%"}, {"measurement": "Emax", "setting": "GLP-1R [3]; read-out: b-arrestin 2 recruitment Emax relative to GLP-1, HEK293/b-arrestin2/hGLP1R cells", "value": 0.7, "unit": "%"}]}
{"smiles": "CCc1cc(OCCCCn2cc(COCCOCCOCCOCCOCCOCCOCCOCCN)nn2)ccc1-c1ccc(C[C@H](NC(=O)[C@H](CC(=O)O)NC(=O)[C@H](CO)NC(=O)[C@@H](NC(=O)C(C)(Cc2ccccc2F)NC(=O)[C@@H](NC(=O)CNC(=O)[C@H](Cc2nn[nH]n2)NC(=O)C(C)(C)C(=O)NCCc2cnc[nH]2)[C@@H](C)O)[C@@H](C)O)C(=O)N[C@@H](CCCc2cc(C)cc(C)c2)C(=O)O)cc1", "note": "(some centres unmarked) [M6009]", "values": [{"measurement": "GLP-1R CAMP Max", "setting": "GLP-1R [1]; Table 10", "value": 139.7, "unit": "%"}, {"measurement": "EC50", "setting": "GLP-1R [1]; Table 10, read-out: GLP-1R CAMP EC50", "value": 2.23, "unit": "nM"}, {"measurement": "amount remaining / detected after incubation of Q-M6009", "setting": "[4]; Q-M6009 in human liver S9, text", "value": 93, "unit": "%"}, {"measurement": "Relative Abundance (% Total)", "setting": "[4]; metabolites of Q-M3190 at 4 hours in human liver S9", "value": 2.34, "unit": "% Total"}, {"measurement": "Relative Abundance (% Total)", "setting": "[4]; metabolites of Q-M6009 at 4 hours in human liver S9", "value": 13.14, "unit": "% Total"}, {"measurement": "Special liability", "setting": "[5]", "value": "stable at pH <3 or pH >11, and unstable at PH <1"}, {"measurement": "solubility", "setting": "physchem", "value": "> 70000 µg/mL and > 30000 µM"}, {"measurement": "Emax", "setting": "GLP-1R [2]", "value": 92.1, "unit": "%"}, {"measurement": "CRE-dependent luciferase reporter activity (in words)", "setting": "GLP-1R [2]; HEK293/CRE-Luc/hGLP1R cells", "value": "comparable activities as that of M3190"}, {"measurement": "b-arrestin 2 recruitment (in words)", "setting": "GLP-1R [3]; HEK293/b-arrestin2/hGLP1R cells", "value": "comparable activities as that of M3190"}]}
